The subject of assay [1] is 4T1 and LLC tumor cells, also transfected to overexpress VEGF-C. Nature of the assay: Example 3: syngeneic 4T1 and LLC models incl. VEGF-C overexpressing tumor cells, lymphangitic carcinomatosis. It is filed as in vivo, syngeneic mice. The settings on record: preventative treatment, alone or with an immune modulator or chemotherapy. The method, then: The experiments from Example 2 are performed using the same animal models (4T1 and LLC) in syngeneic mice. Another group of tumor cells is transfected to overexpress VEGF-C to stimulate severe lymphatic dysregulation. Overexpression of VEGF C by tumor cells can result in a severe lymphatic dysregulation and an extremely aggressive lymphangitic carcinomatosis, which is a subset of the groups of dysregulated lymphatic disorders resistant to immunotherapy (Example 1). […] In this experiment, it is evaluated whether advanced tumors with inherent lymphatic dysregulation or with exaggerated lymphatic dysregulation driven by VEGF C hyperexpression can be treated and whether treatment can prevent mice with cancers from progressing to severe lymphangitic carcinomatosis.
Treatment groups include (1) anti-PD-1 mAb alone; (2) anti-PD-1-mAb plus lymphatic system modulator (anti-VEGF C or anti-VEGF R3 mAb, or SAR131675); (3) cisplatin alone; (4) lymphatic system modulator (anti-VEGF C or anti-VEGF R3 mAb, or SAR131675) plus cisplatin; and (5) negative control (no treatment).

Assay [2] relates to LLC lung cancer or 4T1 breast cancer cells. Briefly: Example 2: syngeneic tumor models treated with lymphatic system modulator plus immunotherapy or chemotherapy. The assay is classed as in vivo, syngeneic mice (C57 Black 6 and BALB/c). The method, then: One to two million cells of either LLC lung cancer or 4T1 breast cancer cells are subcutaneously implanted into syngeneic mice (C57 Black 6 and BALB/c). Animals are treated with vehicle alone as a control, with chemotherapy (cisplatin), or with immunotherapy alone (anti-PD-1 mAb). Animals are imaged by intravascular ultrasound (IVUS), CT/PET, or MRI, for growth of the primary tumor and for metastatic spread of the tumor. Blood samples are obtained for a multiplexed measure of serum biomarkers of lymphatic biology function (Millipore mouse 24 plex; MAGPMAG-24K). Around Study Day 10, animals are injected with 1-1.5 million more tumor cells into the tail vein. Between Study Days 13 and 16, the primary tumor is surgically resected, and animals resume treatment. […]
Animals are imaged weekly, and blood for serum multiplex measurements is continued and evaluated. Survival studies and analyses are performed, and animals are evaluated based on overall survival, progression-free survival, objective and durable response, and serum biomarker measurements. Lung tissue, lymphatics, and regional lymph nodes and tumor tissue are concurrently evaluated upon animal sacrifice for functional immune evaluation and analysis of the tumor and disease analysis.

Structures are written as SMILES.

Take `CCn1c(N)c(C(=O)NC)c(=O)c2ccc(C#C[C@@](C)(O)COC)nc21` [SAR131675]: in assay [1], the “objective and functional outcomes” value is listed as “significantly improves”; the “progression to lymphangitic carcinomatosis” value is listed as “no mouse progresses”. In addition, the immunological function result in assay [2] (concurrent with immune modulator (checkpoint inhibitor) or chemotherapy (cisplatin)) is reported as “functional immunological improvements”.

On to `N.N.[Cl][Pt][Cl]` [cisplatin], for which, in assay [2] (agent alone), the “response of animals to single agent” value was “no to marginal response”.

The values are drawn from patent US12460003B2, “Methods of assessing and treating cancer in subjects having dysregulated lymphatic systems” (Ensemble Group Holdings, priority 2016, dated 2025).
